Values quoted from earlier work, collected in patent publication US5998440A, “Azetidine, pyrrolidine and piperidine derivatives” (Merck Sharpe & Dohme Ltd., priority 1995, dated 1999).

Conditions: humans, therapeutic doses

CNS(=O)(=O)Cc1ccc2[nH]cc(CCN(C)C)c2c1 [sumatriptan]
adverse cardiovascular events: certain adverse cardiovascular events
